Reference: patent publication US12263248B2, “Compounds and compositions for intracellular delivery of therapeutic agents” (ModernaTX, Inc., priority 2018, dated 2025)

Assays:
IP-10 = test: Cytokine induction in rats after intravenous administration; assay type: in vivo, rat; details: for IP-10: rats, 2.0 mpk, 6 hours, hEPO nanoparticle compositions; for IP-10 induction: rat, 48 hours after administration
Description: The expression of hEPO and cytokine induction in rats intravenously administered a nanoparticle composition at a dose of 2.0 mpk was measured at 6 h.
Table 19A summarizes the hEPO expression, IP-10 induction, liver and spleen levels, and alanine aminotransferase (ALT) and aspartate aminotransferase (AST) measured upon intravenous administration of formulations including Compounds 48, 49, and 50 to rat at 0.2 and 2 mpk and hEPO mRNA. hEPO concentrations were measured 6 hours after administration, while cytokine induction and liver and spleen levels were measured 48 hours after administration. hEPO and IP-10 concentrations are presented in pg/ml, while liver levels are provided in ng/g. ALT and AST levels are presented in international units.

hEPO mRNA [1] = test: hEPO expression after intravenous administration to rats; assay type: in vivo, rat; details: for Lipid/MC3 hEPO conc. ratio 0.2 mpk / Lipid/MC3 hEPO conc. ratio 2 mpk: rats; for Lipid/MC3 hEPO expression: 6 hours after administration; for [hEPO]: species, dose and time not given
In short: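 Rats dosed intravenously once with nanoparticle composition, 0.2 or 2.0 mpk, formulated by the standard MC3 method. Tail-vein blood sampled at 6 h or at time points from 0.25 to 48 h. hEPO measured by ELISA.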

[2] = Lipid clearance: lipid level in mouse liver tissue (LC-MS/MS); assay type: in vivo; details: for % dose remaining Mouse liver tissue, 24 h: CD-1 mouse liver 24 h after 0.5 mg/kg bolus dose mRNA, n = 5 ± S.D.; for original dose remaining in liver tissue 24 hours post dose: mice; for % Dose Remaining in Liver 6 h: Table 3D
Description: Quantification of Lipid by LC-MS/MS: Liver samples were homogenized following addition of 19 eq. (w/v) of water (DF=20). Protein was precipitated and analyzed against calibration standards prepared in matching blank. Chromatographic separation and quantification was accomplished with a LC-MS/MS System. Samples were injected and separated via HPLC A triple-quadrupole MS/MS system operated in positive ion mode was used for signal detection.

[3] = Chemical stability of lipids in ethanol (lipid purity); assay type: physicochemical
Description: Ester linkages were previously reported to trigger metabolism by esterases in vivo. (See Fukami, T. et al. Drug Metab. Pharmacokinet. 2012, 27, 466-477, the content of which is incorporated by reference herein in its entirety). […] (See Maier M. A., Mol. Ther. 2013, 21, 1570-1578, the content of which is incorporated herein in its entirety) First, the chemical stability of the lipids was evaluated by measuring ethanol stability at room temperature and 37° C. (Table 39). […] LNPs formed with compound 138 were larger, with a surface pKa>7. […] Removal of one ester function (compound 136) afforded LNPs with improved physiochemical characteristics and lower LNP surface pKa.

hEPO mRNA [4] = test: hEPO expression after subcutaneous administration to mice; assay type: in vivo, female CD-1 mice; details: for Novel lipid/MC3 expression ratio, 6 hr. time point, s.c. hEPO 0.5 mpk: relative to MC3
Description: The effect of the lipids of the disclosure on protein expression upon subcutaneous administration was studied. Formulations containing lipids of the disclosure and an mRNA expressing luciferase or hEPO were administered subcutaneously to female CD-1 mice at 0.5 mpk. Expression levels were obtained via whole body luminescent imaging (BLI) at 3, 6 and 24 hours after injection and expression levels in liver, spleen and at the injection site were evaluated ex vivo after 24 hours. […] See also Tables 35 and 36, and FIGS. 19 and 27.
Table 36 summarizes the hEPO expression levels using various nanoparticle compositions of the disclosure as compared to the hEPO expression level using a formulation containing MC3 or Compound 18, following subcutaneous administration, as described above.

[5] = rat, intravenous, 0.2 mpk, 6 hours
[6] = rat, intravenous, 2 mpk, 6 hours

CCCCCCCCCN(CCO)CCCCCCCC(=O)OC(CCCCCCCC)CCCCCCCC [Compound 3, Heptadecan-9-yl 8-((2-hydroxyethyl)(nonyl)amino)octanoate]
IP-10 (IP-10): 542 pg/mL
hEPO expression (hEPO mRNA [1]; rat, 6 h, 2 mpk, i.v.): 1.74e+07 pg/mL
Lipid/MC3 hEPO conc. ratio 0.2 mpk (hEPO mRNA [1]; intravenous, 0.2 mpk, 6 hours): 2.41
Lipid/MC3 hEPO conc. ratio 2 mpk (hEPO mRNA [1]; intravenous, 2 mpk, 6 hours): 1.21

CCCCC/C=C\C/C=C\CCCCCCCCN(CCO)CCCCCCCC(=O)OC(CCCCCCCC)CCCCCCCC [Compound 6, Heptadecan-9-yl 8-((2-hydroxyethyl)((9Z,12Z)-octadeca-9,12-dien-1-yl)amino)octanoate]
% dose remaining Mouse liver tissue, 24 h [2]: 67 ± 9.8%
original dose remaining in liver tissue 24 hours post dose ([2]; intravenous): 67%
Lipid Purity ([3]; t = 0): 93.80%
Lipid Purity ([3]; t = 96 h, 25° C.): 93.21%
Lipid Purity ([3]; t = 96 h, 37° C.): 94.29%

CCCCCC/C=C\COC(=O)CCCCCCCN(CCO)CCCCCCCC(=O)OC(CCCCCCCC)CCCCCCCC [Compound 24, Heptadecan-9-yl (Z)-8_((2-hydroxyethyl) (8-(non-2-en-1-yloxy)-8-oxooctyl)amino)octanoate]
IP-10 (IP-10): 323.5 pg/mL
hEPO expression (hEPO mRNA [1]; rat, 6 h, 2 mpk, i.v.): 1.44e+07 pg/mL
Lipid/MC3 hEPO conc. ratio 0.2 mpk (hEPO mRNA [1]; intravenous, 0.2 mpk, 6 hours): 1.75
Lipid/MC3 hEPO conc. ratio 2 mpk (hEPO mRNA [1]; intravenous, 2 mpk, 6 hours): 1.01

CCCCCCCCCOC(=O)CCCN(CCO)CCCCCCCC(=O)OC(CCCCCCCC)CCCCCCCC [Compound 26, Heptadecan-9-yl 8-((2-hydroxyethyl)(4-(nonyloxy)-4-oxobutyl)amino) octanoate]
Lipid Purity ([3]; t = 0): 98.64%
Lipid Purity ([3]; t = 96 h, 25° C.): 97.38%
Lipid Purity ([3]; t = 96 h, 37° C.): 95.72%
Lipid/MC3 hEPO expression (hEPO mRNA [1]; 2 mpk dose to rat): 4.95
Lipid/MC3 hEPO conc. ratio 2 mpk (hEPO mRNA [1]; intravenous, 2 mpk, 6 hours): 4.95

CCCCCCCCC(CCCCCCCC)OC(=O)CCCCCCCN(CCO)CCCCCCCC(=O)OC(CCCCCCCC)CCCCCCCC [Compound 29, Di(heptadecan-9-yl) 8,8′-((2-hydroxyethyl)azanediyl)dioctanoate]
% dose remaining Mouse liver tissue, 24 h [2]: 68 ± 9.2%
original dose remaining in liver tissue 24 hours post dose ([2]; intravenous): 68%
Lipid Purity ([3]; t = 0): 97.017%
Lipid Purity ([3]; t = 96 h, 25° C.): 97.67%
Lipid Purity ([3]; t = 96 h, 37° C.): 98.10%

CCCCCCCCCOC(=O)CCCCCCCN(CCO)CCCCCCCOC(=O)C(CCCCCCCC)CCCCCCCC [Compound 30, 7-((2-Hydroxyethyl)(8-(nonyloxy)-8-oxooctyl)amino)heptyl 2-octyldecanoate]
IP-10 (IP-10): 214.5 pg/mL
hEPO expression Lipid/Compound 18 ratio, 6 hr. (hEPO mRNA [4]; 0.5 mpk, 6 hr.): 1.35
hEPO expression Lipid/MC3 ratio, 6 hr. (hEPO mRNA [4]; 0.5 mpk, 6 hr.): 6.53
hEPO expression Lipid/Compound 18 ratio, AUC (hEPO mRNA [4]; 0.5 mpk, AUC): 1.27
hEPO expression Lipid/MC3 ratio, AUC (hEPO mRNA [4]; 0.5 mpk, AUC): 6.38
hEPO expression (hEPO mRNA [1]; rat, 6 h, 2 mpk, i.v.): 1.63e+07 pg/mL
Lipid/MC3 hEPO conc. ratio 0.2 mpk (hEPO mRNA [1]; intravenous, 0.2 mpk, 6 hours): 1.87
Lipid/MC3 hEPO conc. ratio 2 mpk (hEPO mRNA [1]; intravenous, 2 mpk, 6 hours): 1.14

CCCCCCCCC(CCC)OC(=O)CCCCCCCN(CCO)CCCCCCCC(=O)OC(CCCCCCCC)CCCCCCCC (centres unmarked) [Compound 50, dodecan-4-yl 8-((8-(heptadecan-9-yloxy)-8-oxooctyl)(2-hydroxyethyl)amino)octanoate]
IP-10 induction (IP-10; 0.2 mpk): 20 pg/mL
IP-10 induction (IP-10; 2 mpk): 1065 pg/mL
hEPO expression (hEPO mRNA [1]; [5]): 2.62e+06 pg/mL
hEPO expression (hEPO mRNA [1]; [6]): 2.81e+07 pg/mL
Lipid/MC3 hEPO conc. ratio 0.2 mpk (hEPO mRNA [1]; intravenous, 0.2 mpk, 6 hours): 3.41
Lipid/MC3 hEPO conc. ratio 2 mpk (hEPO mRNA [1]; intravenous, 2 mpk, 6 hours): 3.03

CCCC/C=C\CCC(CC/C=C\CCCC)OC(=O)CCCCCCCN(CCO)CCCCCCCC(=O)OCCCCCCCCC [Compound 60, (5Z,12Z)-Heptadeca-5,12-dien-9-yl 8-((2-hydroxyethyl)(8-(nonyloxy)-8-oxooctyl)amino)octanoate]
Novel lipid/MC3 expression ratio, 6 hr. time point, s.c. hEPO 0.5 mpk (hEPO mRNA [4]): 6.59

CCCCCCCCCOC(=O)CCCCCCCN(CCCCCCCC(=O)OC(CCCCCCCC)CCCCCCCC)CCCNS(C)(=O)=O [Compound 109, Heptadecan-9-yl 8-((3-(methylsulfonamido)propyl)(8-(nonyloxy)-8-oxooctyl)amino)octanoate]
Novel lipid/MC3 expression ratio, 6 hr. time point, s.c. hEPO 0.5 mpk (hEPO mRNA [4]): 6.78

CCCCCCCCCOC(=O)CCCCCCCN(CCCCCCCC(=O)OC(CCCCCCCC)CCCCCCCC)CCCNC(=S)N(C)C [Compound 111, Heptadecan-9-yl 8-((3-(3,3-dimethylthioureido)propyl)(8-(nonyloxy)-8-oxooctyl)amino)octanoate]
Novel lipid/MC3 expression ratio, 6 hr. time point, s.c. hEPO 0.5 mpk (hEPO mRNA [4]): 6.40

CCCCC/C=C\C/C=C\CCCCCCCCN(CCO)CCCCCCCC(=O)OCCCCCCCCC [Compound 136, Nonyl 8-((2-hydroxyethyl)((9Z,12Z)-octadeca-9,12-dien-1-yl)amino)octanoate]
% dose remaining Mouse liver tissue, 24 h [2]: 0%
Lipid Purity ([3]; t = 0): 91.81%
Lipid Purity ([3]; t = 96 h, 25° C.): 93.17%
Lipid Purity ([3]; t = 96 h, 37° C.): 93.86%

CCCCCCCCCOC(=O)CCCCCCCN(CCO)CCCCCCCC(=O)OCCCCCCCCC [Compound 138, Dinonyl 8,8′-((2-hydroxyethyl)azanediyl)dioctanoate]
% dose remaining Mouse liver tissue, 24 h [2]: 0%
original dose remaining in liver tissue 24 hours post dose ([2]; intravenous): no lipid detected
Lipid Purity ([3]; t = 0): 97.59%
Lipid Purity ([3]; t = 96 h, 25° C.): 98.64%
Lipid Purity ([3]; t = 96 h, 37° C.): 97.82%

CCCCCCCCCOC(=O)CCCCCCCN(CCO)CCCCCCCCCC(=O)OC(CCCCCC)CCCCCC [Compound 147, Tridecan-7-yl 10-((2-hydroxyethyl)(8-(nonyloxy)-8-oxooctyl)amino)decanoate]
AUC (hEPO) (hEPO mRNA [1]; Table 19B): 7.28e+07 pg·h/mL
Lipid/MC3 ([hEPO] ratio) (hEPO mRNA [1]; Table 19B, relative to MC3): 3.69
Lipid/MC3 AUC (hEPO mRNA [1]; Table 19B, relative to MC3): 3.94
[hEPO] (hEPO mRNA [1]; Table 19B): 5.45e+06 pg/mL

CCCCC/C=C\C/C=C\CCCCCCCCC(CCCCCCCC/C=C\C/C=C\CCCCC)OC(=O)CCCN(C)C [MC3, DLin-MC3-DMA, reference compound]
% dose remaining Mouse liver tissue, 24 h [2]: 71 ± 27%
% Dose Remaining in Liver 6 h ([2]; second column (head also says 6 h), intravenous): 54%
% Dose Remaining in Liver 6 h ([2]; intravenous): 80%
Mouse liver tissue level (ng/g) 6 h ([2]; Table 3E, intravenous, 6 h): 85400 ng/g
Mouse liver tissue level (ng/g) 24 h ([2]; Table 3E, intravenous, 24 h): 67433 ng/g
% Remaining dose at 6 h ([2]; Table 3E, mouse liver, 6 h): >98%
% Remaining dose at 24 h ([2]; Table 3E, mouse liver, 24 h): 79.7%
IP-10 induction (IP-10; 0.2 mpk): 2 pg/mL
IP-10 induction (IP-10; 2 mpk): 596 pg/mL
IP-10 (IP-10): 688.3 pg/mL
Lipid/MC3 hEPO expression (hEPO mRNA [1]; 0.2 mpk dose to rat): 1
Lipid/MC3 hEPO expression (hEPO mRNA [1]; 2 mpk dose to rat): 1
AUC (hEPO) (hEPO mRNA [1]; Table 19B): 3.46e+07 pg·h/mL
[hEPO] (hEPO mRNA [1]; Table 19B): 14800 pg/mL
hEPO expression (hEPO mRNA [1]; rat, 6 h, 2 mpk, i.v.): 1.33e+07 pg/mL
hEPO expression 0.25 h (hEPO mRNA [1]; rat, intravenous, 0.2 mpk, 0.25 h): 0 pg/mL
hEPO expression 0.5 h (hEPO mRNA [1]; rat, intravenous, 0.2 mpk, 0.5 h): 42457 pg/mL
hEPO expression 1 h (hEPO mRNA [1]; rat, intravenous, 0.2 mpk, 1 h): 93720 pg/mL
hEPO expression 2 h (hEPO mRNA [1]; rat, intravenous, 0.2 mpk, 2 h): 524093 pg/mL
hEPO expression 4 h (hEPO mRNA [1]; rat, intravenous, 0.2 mpk, 4 h): 601307 pg/mL
hEPO expression (hEPO mRNA [1]; [5]): 7.68e+06 pg/mL
hEPO expression 8 h (hEPO mRNA [1]; rat, intravenous, 0.2 mpk, 8 h): 1536833 pg/mL
hEPO expression 24 h (hEPO mRNA [1]; rat, intravenous, 0.2 mpk, 24 h): 703619 pg/mL
hEPO expression 48 h (hEPO mRNA [1]; rat, intravenous, 0.2 mpk, 48 h): 64687 pg/mL
hEPO expression (hEPO mRNA [1]; [6]): 9.29e+06 pg/mL
Lipid/MC3 hEPO conc. ratio 0.2 mpk (hEPO mRNA [1]; intravenous, 0.2 mpk, 6 hours): 1
Lipid/MC3 hEPO conc. ratio 2 mpk (hEPO mRNA [1]; intravenous, 2 mpk, 6 hours): 1
